Target: T1, OAT2 (Homo sapiens, UniProt Q9Y694)
T1 construct: expressed in transfected cells; host or cells: S2 cells
T1 sequence (Q9Y694 1-548): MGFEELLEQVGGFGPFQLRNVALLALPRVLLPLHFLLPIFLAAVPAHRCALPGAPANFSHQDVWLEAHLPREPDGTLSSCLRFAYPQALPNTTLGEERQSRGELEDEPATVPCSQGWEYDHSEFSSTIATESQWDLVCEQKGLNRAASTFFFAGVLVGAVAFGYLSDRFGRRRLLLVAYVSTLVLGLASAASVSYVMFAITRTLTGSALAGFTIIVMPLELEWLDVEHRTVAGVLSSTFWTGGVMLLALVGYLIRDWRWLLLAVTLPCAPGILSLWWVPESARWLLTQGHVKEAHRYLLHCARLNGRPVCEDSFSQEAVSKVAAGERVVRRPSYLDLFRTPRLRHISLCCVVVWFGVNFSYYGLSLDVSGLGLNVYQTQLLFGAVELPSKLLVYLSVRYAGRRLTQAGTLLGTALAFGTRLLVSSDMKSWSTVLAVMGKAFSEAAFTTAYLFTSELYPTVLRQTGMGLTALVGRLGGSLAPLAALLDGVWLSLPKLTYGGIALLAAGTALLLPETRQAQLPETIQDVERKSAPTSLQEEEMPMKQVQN
Assay: OAT2 inhibition: accumulation of [3H]-PGE2 in S2 cells
Assay type: in vitro ADME
Experimental: Schneider 2 (S2) cells are a commonly used Drosophila melanogaster cell lines from a primary culture of late stage (20-24 hours old) embryos from a macrophage-like lineage. S2 cells are used to express heterologous proteins, to produce proteins on a large scale, and to easily and transiently transfect with several plasmids at once to study protein interactions.
[^14C]-Metformin (1 mM) was provided as a solid and was prepared in Hank's balanced salt solution (HBSS).

NS(=O)(=O)c1cc(Cl)c(Cl)c(S(N)(=O)=O)c1 [Dichlorphenamide, 4,5-dichloro-1,3-benzenedisulfonamide]
IC50: > 1000 µM
